One series relates to MCF7 cell line. Put plainly: In vitro cytotoxic activity, MTT method, MCF7. It counts as cell-based, human. The protocol:
(§1) Cell lines: The in vitro human breast cancerous cell line (MCF7), lung cancerous cell lines (A549) and normal cell lines were purchased from Serum and Vaccine formulation in Cairo-Egypt.
(§2) In vitro cytotoxic activity of all synthesized compounds against two human breast cell line (MCF7) and lung cell lines (A549) was evaluated according to the MTT method. Firstly, Growth the cell line medium in 96 well tissue culture plate was injected with 10^5 cells/mL (100 uL/plate well) of the cell line and incubated at 37 °C for 24 h to develop a monolayer sheet then the formed growth medium was poured from 96 well microtiter plates after the confluent sheet of cells. […] Secondly, add 0.1 mL of each concentration tetrahydroisoquinoline sample to each plate. The plates were incubated at 37 °C. Thirdly MTT solution (5 mg/mL in PBS) is prepared. Add 20 µL of MTT solution to each well plates. And shaking in 150 rpm for 5 min, to mix the MTT into the media. Then incubate at (37 °C, 5% CO2) for 1–5 h. Finally read the optical density at 560 nm and subtract background at 620 nm.
(§3) In this work, doxorubicin was used as a positive control drug for comparison with the synthesized compounds under the same experimental conditions.
(Tetrazolium dyes change colour on reduction, which living cells bring about.)

Another series concerns A549 cell line. The series is described as follows: In vitro cytotoxic activity, MTT method, A549. The protocol:
as §1, §2, §3

The nature of series [1]: DPPH scavenging antioxidant activity. How it is done: The antioxidant activity of ten compounds was determined using DPPH [32–34]. A solution 1: prepared by dissolving DPPH (0.002 g) in ethanol (50 mL etnanol). Solution 2: prepared by dissolving different weights 0.05, 0.01 g of each sample in 1 mL of DMSO then take 10 µL of each sample solution with 1 mL ethanol. Then mix 1 mL of solution 1 with 1 mL of solution 2 then vortex the resulting mixture in the dark for about 30 min. The absorbance of the mixture was measured by spectrophotometer at λmax = 517 nm against blank 1 mL absolute ethanol and compared to the ascorbic acid (Vitamin C).
Ten newly synthesized compounds were studied as in vitro antioxidants by measuring of their DPPH scavenging activity which is represented as a percentage % [32]^. Results are represented by mean ± SD of three replicates. […] The higher dose concentration of 0.05 μg/mL represents higher antioxidant activity. […] The high antioxidant activity is referred to the presence of C=O, NH2, and OH groups like ascorbic acid which can be easily oxidized and reduced and can be used as antioxidant drugs. (Fig. 8 and Table 9).
For orientation: DPPH is a stable violet radical that fades when it is reduced.

Regarding `CC(=O)C1C(c2ccc(N(C)C)cc2)c2c(C)nc3sc(C(=O)Nc4ccc(Cl)cc4)c(N)c3c2CC1(C)O` (stereo not drawn) [Compound 8c, 7-Acetyl-1-amino-N-(4-chlorophenyl)-5,8-dimethyl-8-hydroxy-6-(4-N,N-dimethyl-aminophenyl)-6,7,8,9-tetrahydrothieno[2,3-c]isoquinoline-2-carboxamide], the IC50 – broadly, the concentration needed to halve the response being measured – with MCF7 cell line (Homo sapiens, MCF7, MCF7 cell line, MTT) is 215 ± 5 nM; with A549 cell line (Homo sapiens, read-out: IC50 ± SD) it was 332 ± 2 nM. In addition, the Toxicity % was determined as 26.68% in the series on MCF7 cell line (MCF7, Conc. 0.0487 µMol); 30.4566% with MCF7 cell line (MCF7, Conc. 0.0975 µMol); 40.36% in the series on MCF7 cell line (MCF7, Conc. 0.195 µMol); 60.25% in the series with MCF7 cell line (MCF7, Conc. 0.391 µMol); 70.02% with MCF7 cell line (MCF7, Conc. 0.781 µMol); 85.7% with MCF7 cell line (MCF7, Conc. 1.562 µMol). In addition, the Toxicity % in the series on MCF7 cell line (MCF7, Conc. 3.125 µMol) came out at 96.45%; with MCF7 cell line (MCF7, Conc. 6.25 µMol), 96.57%; with MCF7 cell line (MCF7, Conc. 12.5 µMol), 97.1%; in the series with MCF7 cell line (MCF7, Conc. 25 µMol), 96.94%; with A549 cell line (A549, Conc. 0.04875 µMol), 10.24%; with A549 cell line (A549, Conc. 0.0975 µMol), 14.26%. The Toxicity % in the series on A549 cell line (A549, Conc. 0.195 µMol) was found to be 18.74%; in the series with A549 cell line (A549, Conc. 0.391 µMol), 47.14%; in the series with A549 cell line (A549, Conc. 0.781 µMol) it was 65.05%; in the series with A549 cell line (A549, Conc. 1.562 µMol), 75.74%; in the series with A549 cell line (A549, Conc. 3.125 µMol), 84.18%; in the series on A549 cell line (A549, Conc. 6.25 µMol), 89.35%. In addition, the Toxicity % with A549 cell line (A549, Conc. 12.5 µMol) is on record as 96.69%; in the series on A549 cell line (A549, Conc. 25 µMol), 97%. Moreover, the Viability % with MCF7 cell line (MCF7, Conc. 0.0487 µMol) came to 73.3223%; in the series on MCF7 cell line (MCF7, Conc. 0.0975 µMol), 69.5434%; in the series on MCF7 cell line (MCF7, Conc. 0.195 µMol), 59.64%; in the series on MCF7 cell line (MCF7, Conc. 0.391 µMol), 39.75%; in the series on MCF7 cell line (MCF7, Conc. 0.781 µMol), 29.98%; with MCF7 cell line (MCF7, Conc. 1.562 µMol), 14.3%. For the same compound, the Viability % in the series on MCF7 cell line (MCF7, Conc. 3.125 µMol) amounted to 3.554%; in the series with MCF7 cell line (MCF7, Conc. 6.25 µMol) it was 3.431%; with MCF7 cell line (MCF7, Conc. 12.5 µMol) it was 2.9%; in the series on MCF7 cell line (MCF7, Conc. 25 µMol), 3.064%; in the series with A549 cell line (A549, Conc. 0.195 µMol) it was 81.26%; in the series with A549 cell line (A549, Conc. 0.391 µMol), 52.86%. Also, the Viability % in the series with A549 cell line (A549, Conc. 0.781 µMol) came out at 34.95%; in the series with A549 cell line (A549, Conc. 1.562 µMol), 24.26%; with A549 cell line (A549, Conc. 3.125 µMol) it was 15.82%; with A549 cell line (A549, Conc. 6.25 µMol), 10.65%; in the series with A549 cell line (A549, Conc. 12.5 µMol), 3.314%; in the series with A549 cell line (A549, Conc. 25 µMol), 2.998%.
On to `O=C1O[C@H]([C@@H](O)CO)C(O)=C1O` [Vitamin C, ascorbic acid, reference compound], for which the “DPPH scavenging, inhibition (%)” value in series [1] (0.01 µg/mL) turned out to be 50.54 ± 2.76%; in series [1] (0.05 µg/mL), 69.90 ± 3.98%.

The values are drawn from paper PMC10873978, “Novel tetrahydroisoquinolines as DHFR and CDK2 inhibitors: synthesis, characterization, anticancer activity and antioxidant properties” (BMC Chemistry, 2024).
